From PMC7897990, “TriTOX: A novel Trichomonas vaginalis assay platform for high-throughput screening of compound libraries” (International Journal for Parasitology: Drugs and Drug …, 2021)
Like-named read-outs stand apart in the source and are kept apart here. Non-standard residues stand in square brackets, D forms with d. Residues, ends and D or L forms follow the SMILES beside them. GABA = NCCCC(=O)O

Assays:
[1] = tested on: Trichomonas vaginalis G3 trophozoites; details: for T.vaginalis_Absorbance_Rep1: replicate 1, raw absorbance; for T.vaginalis_Absorbance_Rep2: replicate 2, raw absorbance
[2] = tested on: nontumorigenic neonatal foreskin fibroblast (NFF) cell line
[3] = HTS, parasite screen at 1 µg/mL, replicate 1
[4] = HTS, parasite screen at 1 µg/mL
[5] = HTS, parasite screen at 1 µg/mL, replicate 2
[6] = NFF fibroblast screen at 5 µg/mL, A = active, I = inactive
[7] = replicate 1, parasite screen at 1 µg/mL
[8] = replicate 2, parasite screen at 1 µg/mL
[9] = HTS replicate 1, parasite screen 1 µg/mL
[10] = HTS replicate 2, parasite screen 1 µg/mL
[11] = NFF fibroblasts, single concentration 5 µg/mL
[12] = HTS single concentration, parasite screen 1 µg/mL, replicate 1
[13] = HTS single concentration, parasite screen 1 µg/mL, replicate 2
[14] = NFF_NS1 screen 5 µg/mL, single concentration
[15] = parasite screen at 1 µg/mL, replicate 1
[16] = parasite screen at 1 µg/mL, replicate 2
[17] = NFF_NS1 screen at 5 µg/mL, NFF cells

CO[C@@H]1[C@@H](O)[C@@H](O)[C@@H](Oc2ccc3c(O)c(NC(=O)c4ccc(O)c(CC=C(C)C)c4)c(=O)oc3c2C)OC1(C)C [Descarbamylnovobiocin]
T.vaginalis_%inb_Rep1 [1, 3]: 9.75%
T.vaginalis_Absorbance_Rep1 [1, 4]: 0.89
T.vaginalis_%inb_Rep2 [1, 5]: 9.69%
T.vaginalis_Absorbance_Rep2 [1, 4]: 0.754
NFF_Activity ([2]; NFF_NS1 screen at 5 µg/mL): I (otherwise these were reported as inactive (I))

CC(C)[C@H]1NC(=O)[C@H](Cc2ccccc2)NC(=O)[C@@H](C(C)C)NC(=O)[C@@H](C)NC(=O)CCCNC(=O)[C@@H](Cc2c[nH]c3ccccc23)NC(=O)[C@@H](C)NC1=O [Unguisin A] (cyclo(F[dV][dA][dW][GABA][dA][dV]))
T.vaginalis_%inb_Rep1 [1, 3]: 9.07%
T.vaginalis_%inb_Rep2 [1, 5]: 14.50%
NFF_Activity [2, 6]: I (otherwise these were reported as inactive (I))

COC12c3c(C)cc(O)c4c(=O)occ(c34)C(=O)C1C13COC(=O)c4c(O)cc(C)c(c41)C(=O)C2C3OC(C)=O (stereo not drawn) [Duclauxin]
T.vaginalis_%inb_Rep1 [1, 3]: 14.59%
T.vaginalis_Absorbance_Rep1 [1, 4]: 0.98
T.vaginalis_%inb_Rep2 [1, 5]: 17.79%
T.vaginalis_Absorbance_Rep2 [1, 4]: 0.866
NFF_Activity ([2]; NFF_NS1 screen at 5 µg/mL): I (otherwise these were reported as inactive (I))

CCC(C)C(=O)OC1CCC=C2C=CC(C)C(CCC3CC(O)CC(=O)O3)C21 (stereo not drawn) [BIA-M1209]
T.vaginalis_%inb_Rep1 [1, 7]: 12.32%
T.vaginalis_%inb_Rep2 [1, 8]: 10.01%
NFF_Activity ([2]; NFF cells, screen at 5 µg/mL): I (otherwise these were reported as inactive (I))

CCC[C@H](O)C[C@@H]1CC[C@H](C)CCCCC(=O)N(C)[C@@H](Cc2ccc(OCCO)cc2)C(=O)O1 [PF1163A]
T.vaginalis_%inb_Rep1 [1, 9]: 11.61%
T.vaginalis_%inb_Rep2 [1, 10]: 10.39%
NFF_Activity [2, 11]: I (otherwise these were reported as inactive (I))

COC1=C(OC)C(=O)C(C)=C(C)C1=O [BIA-A1654]
T.vaginalis_%inb_Rep1 [1, 12]: 13.09%
T.vaginalis_%inb_Rep2 [1, 13]: 16.34%
NFF_Activity [2, 14]: A (active (A) compounds having >25% inhibitory activity)

CN(C)C1C(=O)C(C(N)=O)=C(O)C2(O)C(=O)CC(C3(C)OC(=O)c4c(O)ccc(Cl)c43)CC12 (stereo not drawn) [BIA-I1656]
T.vaginalis_%inb_Rep1 [1, 7]: 15.87%
T.vaginalis_%inb_Rep2 [1, 8]: 12.89%
NFF_Activity ([2]; NFF cells, screen at 5 µg/mL): I (otherwise these were reported as inactive (I))

COc1ccc2c3c([nH]c2c1)[C@H](C=C(C)C)N1C(=O)[C@@H]2CCCN2C(=O)[C@@H]1C3 [Fumitremorgin C]
T.vaginalis_%inb_Rep1 [1, 3]: 12.68%
T.vaginalis_Absorbance_Rep1 [1, 4]: 0.952
T.vaginalis_%inb_Rep2 [1, 5]: 4.11%
T.vaginalis_Absorbance_Rep2 [1, 4]: 0.699
NFF_Activity ([2]; NFF_NS1 screen at 5 µg/mL): I (otherwise these were reported as inactive (I))

COc1cc(/C=C/C(=O)O)cc(OC)c1O [BIA-S1730]
T.vaginalis_%inb_Rep1 [1, 15]: 9.02%
T.vaginalis_%inb_Rep2 [1, 16]: 14.02%
NFF_Activity [2, 17]: I (otherwise these were reported as inactive (I))

CCCCCC[C@H]1C(=O)O[C@H](C)[C@@H](O)/C=C/C=C/C=C/C=C/C=C(\C)[C@@H](O)C[C@H](O)C[C@H](O)C[C@H](O)C[C@H](O)C[C@H](O)C[C@@H]1O [Filipin II]
T.vaginalis_%inb_Rep1 [1, 3]: 13.79%
T.vaginalis_Absorbance_Rep1 [1, 4]: 0.965
T.vaginalis_%inb_Rep2 [1, 5]: 25.09%
T.vaginalis_Absorbance_Rep2 [1, 4]: 0.967
NFF_Activity ([2]; NFF_NS1 screen at 5 µg/mL): I (otherwise these were reported as inactive (I))

CCC(=O)CCCCCC1NC(=O)C2CCCCN2C(=O)C(C(C)CC)NC(=O)C(Cc2cn(OC)c3ccccc23)NC1=O (stereo not drawn) [BIA-A1006]
T.vaginalis_%inb_Rep1 [1, 12]: 13.25%
T.vaginalis_%inb_Rep2 [1, 13]: 17.28%
NFF_Activity [2, 14]: I (otherwise these were reported as inactive (I))

CC(=O)OC[C@]12C[C@H](OC(=O)CC(C)C)C(C)=C[C@H]1O[C@@H]1[C@H](O)[C@@H](OC(C)=O)[C@@]2(C)[C@]12CO2 [BIA-T1933]
T.vaginalis_%inb_Rep1 [1, 15]: 5.61%
T.vaginalis_%inb_Rep2 [1, 16]: 2.80%
NFF_Activity [2, 17]: I (otherwise these were reported as inactive (I))

Echinocandin B
T.vaginalis_%inb_Rep1 [1, 3]: 15.24%
T.vaginalis_Absorbance_Rep1 [1, 4]: 0.992
T.vaginalis_%inb_Rep2 [1, 5]: 6.58%
T.vaginalis_Absorbance_Rep2 [1, 4]: 0.711
NFF_Activity ([2]; NFF_NS1 screen at 5 µg/mL): I (otherwise these were reported as inactive (I))

O=C(O)CC[N+](=O)[O-] [Nitropropionic acid, 3-]
T.vaginalis_%inb_Rep1 [1, 9]: 18.00%
T.vaginalis_%inb_Rep2 [1, 10]: 11.87%
NFF_Activity [2, 11]: I (otherwise these were reported as inactive (I))

CCCCCCCCCCCCCCCC(=O)N[C@H]1CCOC1=O [BIA-H1500]
T.vaginalis_%inb_Rep1 [1, 7]: 13.84%
T.vaginalis_%inb_Rep2 [1, 8]: 11.55%
NFF_Activity ([2]; NFF cells, screen at 5 µg/mL): I (otherwise these were reported as inactive (I))

C[C@@]12CCC[C@@]34CCC[C@@H](C=C[C@H]1CC3)N42 [Porantherine]
T.vaginalis_%inb_Rep1 [1, 9]: 9.49%
T.vaginalis_%inb_Rep2 [1, 10]: 15.78%
NFF_Activity [2, 11]: I (otherwise these were reported as inactive (I))

CC(C)C[C@H]1C(=O)O[C@H](C(C)C)C(=O)N(C)[C@@H](CC(C)C)C(=O)O[C@H](C(C)C)C(=O)N(C)[C@@H](CC(C)C)C(=O)O[C@H](C(C)C)C(=O)N(C)[C@@H](CC(C)C)C(=O)O[C@H](C(C)C)C(=O)N1C [BIA-B1557]
T.vaginalis_%inb_Rep1 [1, 12]: 15.24%
T.vaginalis_%inb_Rep2 [1, 13]: 16.12%
NFF_Activity [2, 14]: I (otherwise these were reported as inactive (I))

Oc1cccc2nc3ccccc3nc12 [BIA-H1520]
T.vaginalis_%inb_Rep1 [1, 7]: 9.69%
T.vaginalis_%inb_Rep2 [1, 8]: 12.89%
NFF_Activity ([2]; NFF cells, screen at 5 µg/mL): I (otherwise these were reported as inactive (I))

CCCCCc1c2c(cc(O)c1C(=O)O)OC(=O)c1c(cc(OC)cc1C(=O)CCCC)O2 [BIA-L1671]
T.vaginalis_%inb_Rep1 [1, 7]: 10.45%
T.vaginalis_%inb_Rep2 [1, 8]: 14.37%
NFF_Activity ([2]; NFF cells, screen at 5 µg/mL): I (otherwise these were reported as inactive (I))

Cc1cc(O)c(C=O)c2c1C(=O)Oc1c(CO)c(O)c3c(c1O2)C(O)OC3=O (stereo not drawn) [BIA-S1741]
T.vaginalis_%inb_Rep1 [1, 15]: 17.25%
T.vaginalis_%inb_Rep2 [1, 16]: 7.43%
NFF_Activity [2, 17]: I (otherwise these were reported as inactive (I))

CC1(C)C=Cc2c(ccc3ccc(=O)oc23)O1 [BIA-S1776]
T.vaginalis_%inb_Rep1 [1, 15]: 12.88%
T.vaginalis_%inb_Rep2 [1, 16]: 13.28%
NFF_Activity [2, 17]: I (otherwise these were reported as inactive (I))

CO[C@H]1/C=C\C=C(\C)C[C@H](C)[C@H](O)[C@H](C)/C=C(C)\C=C(\C)C(=O)O[C@@H]1[C@@H](C)[C@@H](O)[C@H](C)[C@@]1(O)C[C@@H](OC(=O)/C=C/C(=O)O)[C@H](C)[C@@H](C(C)C)O1 [TS 155-2]
T.vaginalis_%inb_Rep1 [1, 3]: 71.89%
T.vaginalis_%inb_Rep2 [1, 5]: 89.46%
NFF_Activity [2, 6]: I (otherwise these were reported as inactive (I))

CCCCCCCCCCCC(=O)N[C@H]1CCOC1=O [Dodecanoyl-L-homoserine lactone]
T.vaginalis_%inb_Rep1 [1, 3]: 9.75%
T.vaginalis_Absorbance_Rep1 [1, 4]: 0.89
T.vaginalis_%inb_Rep2 [1, 5]: 12.87%
T.vaginalis_Absorbance_Rep2 [1, 4]: 0.798
NFF_Activity ([2]; NFF_NS1 screen at 5 µg/mL): I (otherwise these were reported as inactive (I))

CC=CC(C)=CC(C)C(=O)CC(O)CC1CC(=O)NC(=O)C1 (stereo not drawn) [BIA-M1404]
T.vaginalis_%inb_Rep1 [1, 12]: 18.76%
T.vaginalis_%inb_Rep2 [1, 13]: 13.41%
NFF_Activity [2, 14]: I (otherwise these were reported as inactive (I))

CO[C@H]1C[C@@H]2CC[C@@H](C)[C@@](O)(O2)C(=O)C(=O)N2CCCC[C@H]2C(=O)O[C@H]([C@H](C)C[C@@H]2CC[C@@H](OC(=O)C(C)(CO)CO)[C@H](OC)C2)CC(=O)[C@H](C)/C=C(\C)[C@@H](O)[C@@H](OC)C(=O)[C@H](C)C[C@H](C)/C=C/C=C/C=C/1C [BIA-T1386]
T.vaginalis_%inb_Rep1 [1, 15]: 7.60%
T.vaginalis_%inb_Rep2 [1, 16]: 9.14%
NFF_Activity [2, 17]: I (otherwise these were reported as inactive (I))

C=C(C)[C@@H]1CC[C@]2(C(=O)O)CC[C@]3(C)[C@H](CC[C@@H]4[C@@]5(C)CC[C@H](O)C(C)(C)[C@@H]5CC[C@]43C)[C@@H]12 [BIA-B1758]
T.vaginalis_%inb_Rep1 [1, 12]: 14.81%
T.vaginalis_%inb_Rep2 [1, 13]: 7.30%
NFF_Activity [2, 14]: I (otherwise these were reported as inactive (I))

CC(=O)NCCc1c[nH]c2ccc(O)cc12 [BIA-A1738]
T.vaginalis_%inb_Rep1 [1, 12]: 13.41%
T.vaginalis_%inb_Rep2 [1, 13]: 15.18%
NFF_Activity [2, 14]: I (otherwise these were reported as inactive (I))

C=C(C)C1CCC2(C)CCC3(C)C(CCC4C5(C)CCC(O)C(C)(C)C5CCC43C)C12 (stereo not drawn) [BIA-L1759]
T.vaginalis_%inb_Rep1 [1, 7]: 12.73%
T.vaginalis_%inb_Rep2 [1, 8]: 12.70%
NFF_Activity ([2]; NFF cells, screen at 5 µg/mL): I (otherwise these were reported as inactive (I))

CN1C(=O)c2ccccc2-n2c(nc3ccccc3c2=O)C12OC2c1ccccc1 (stereo not drawn) [BIA-B1679]
T.vaginalis_%inb_Rep1 [1, 12]: 16.96%
T.vaginalis_%inb_Rep2 [1, 13]: 15.26%
NFF_Activity [2, 14]: I (otherwise these were reported as inactive (I))

O=C1C=C2C=C[C@@H]3C[C@@]2(O1)[C@H]1CCCCN31 [BIA-S1947]
T.vaginalis_%inb_Rep1 [1, 15]: 7.81%
T.vaginalis_%inb_Rep2 [1, 16]: 10.30%
NFF_Activity [2, 17]: I (otherwise these were reported as inactive (I))

COc1ccc2[nH]c3c(C)c4ccncc4c(C)c3c2c1 [BIA-M1952]
T.vaginalis_%inb_Rep1 [1, 7]: 5.30%
T.vaginalis_%inb_Rep2 [1, 8]: 7.25%
NFF_Activity ([2]; NFF cells, screen at 5 µg/mL): A (active (A) compounds having >25% inhibitory activity)

O=C1C=CC(=O)c2c(O)cccc21 [BIA-J1739]
T.vaginalis_%inb_Rep1 [1, 7]: 12.73%
T.vaginalis_%inb_Rep2 [1, 8]: 10.78%
NFF_Activity ([2]; NFF cells, screen at 5 µg/mL): A (active (A) compounds having >25% inhibitory activity)

CC[C@H](C)[C@H]1O[C@]2(C=C[C@@H]1C)C[C@@H]1C[C@@H](C/C=C(\C)[C@@H](O)[C@@H](C)/C=C/C=C3\CO[C@@H]4[C@H](O)C(C)=C[C@@H](C(=O)O1)[C@]34O)O2 [BIA-A1587]
T.vaginalis_%inb_Rep1 [1, 12]: 13.62%
T.vaginalis_%inb_Rep2 [1, 13]: 16.27%
NFF_Activity [2, 14]: I (otherwise these were reported as inactive (I))

CCCCCCCCCCCCCCCC(=O)C1=C(O)C(CO)OC1=O (stereo not drawn) [BIA-R1082]
T.vaginalis_%inb_Rep1 [1, 15]: 10.55%
T.vaginalis_%inb_Rep2 [1, 16]: 12.25%
NFF_Activity [2, 17]: I (otherwise these were reported as inactive (I))
